Source: US9284323B2, “Naphthalene acetic acid derivatives against HIV infection” (Gilead Sciences, Inc., priority 2012, dated 2016)

Tested on: HIV-IIIb
Assay: Test A: Antiviral Assays in MT4 Cells
Format: cell-based
Settings: MT-4 cells infected with HIV-IIIb, 5 days incubation, CellTiter-Glo readout
Description: The antiviral properties of a compound disclosed herein may be determined using Test A described below.
Test A: Antiviral Assays in MT4 Cells
For the antiviral assay utilizing MT-4 cells, 0.4 μL of […] test concentration of 3-fold serially diluted compound in DMSO was added to 40 μL of cell growth medium (RPMI 1640, 10% FBS, 1% penicillin/Streptomycin, 1% L-Glutamine, 1% HEPES) in each well of 384-well assay plates (10 concentrations) in quadruplicate.
1 mL aliquots of 2×10e6 MT-4 cells are pre-infected for 1 and 3 hrs respectively, @ 37° C. with 25 μL (MT4) or of either cell growth medium (mock-infected) or a fresh 1:250 dilution of an HIV-IIIb concentrated ABI stock (0.004 m.o.i. for MT4 cells). Infected and uninfected cells are diluted in cell growth medium and 35 μL of 2000 (for MT4) cells is added to each well of the assay plates.
Assay plates were then incubated in a 37° C. incubator. After 5 days of incubation, 25 μl of 2× concentrated CellTiter-Glo™ Reagent (catalog # G7573, Promega Biosciences, Inc., Madison, Wis.) was added to each well of the assay plate. Cell lysis was carried out by incubating at room temperature for 2-3 min and then chemiluminescence was read using the Envision reader (PerkinElmer).

[1] = Human immunodeficiency virus 1, IIIB, MT4, 120 h, Table I
[2] = Human immunodeficiency virus 1, IIIB, MT4, 120 h, Table II

EC50 (Table II) [nM]	EC50 [2] [nM]	SMILES	other results
121	–	Cc1cc2cc(C#Cc3cncnc3)ccc2c(-c2ccc3c4c(ccnc24)CCO3)c1[C@H](OC(C)(C)C)C(=O)O (atropisomer, axis not shown) [Example 43]	–
–	–	CC(C)(C)O[C@H](C(=O)O)c1c(-c2ccc3c4c(ccnc24)CCO3)c2ccccc2c2ccccc12 (atropisomer, axis not shown) [Example 24, (S)-2-tert-Butoxy-2-((R)-10-(2,3-dihydropyrano[4,3,2-de]quinolin-7-yl)phenanthren-9-yl)acetic acid]	EC50 [1]: 109 nM
60	–	CC(C)(C)O[C@H](C(=O)O)c1c2c(c3ccccc3c1-c1ccc3c4c(ccnc14)CCO3)CCC2 (atropisomer, axis not shown) [Example 34]	–
–	2950	Cc1cc2ccccc2c(-c2ccc3c4c(ccnc24)CCO3)c1[C@@H](OC(C)(CF)CF)C(=O)O (atropisomer, axis not shown) [Example 104]	–
–	8.72	Cc1ccc2c(-c3ccc4c5c(ccnc35)CCO4)c([C@H](OC(C)(C)CF)C(=O)O)c(C)cc2c1 (atropisomer, axis not shown) [Example 64]	–
–	16.8	Cc1cc2cc(-c3cnc(N4CCOCC4)nc3)ccc2c(-c2ccc3c4c(ccnc24)CCO3)c1[C@H](OC(C)(C)C)C(=O)O (atropisomer, axis not shown) [Example 52]	–
–	7.53	Cc1cc2cc(-c3cnc(N)nc3)ccc2c(-c2ccc3c4c(ccnc24)CCO3)c1[C@H](OC(C)(C)C)C(=O)O (atropisomer, axis not shown) [Example 55]	–
354	–	Cc1cc2cc(-c3ccc4c(cnn4C)c3)ccc2c(-c2ccc3c4c(ccnc24)CCO3)c1[C@H](OC(C)(C)C)C(=O)O (atropisomer, axis not shown) [Example 45]	–
131	–	Cc1c([C@H](OC(C)(C)C)C(=O)O)c(-c2ccc3c4c(ccnc24)CCO3)c2ccccc2c1C(F)F (atropisomer, axis not shown) [Example 86]	–
–	–	Cc1cc2ccc(C#CC(C)(O)c3ccccc3)cc2c(-c2ccc(Cl)cc2)c1[C@H](OC(C)(C)C)C(=O)O (stereo in doubt) [Example 14, (S)-2-tert-butoxy-2-(1-(4-chlorophenyl)-7-((R)-3-hydroxy-3-phenylbut-1-ynyl)-3-methylnaphthalen-2-yl)acetic acid]	EC50 [1]: 56 nM
–	366	CC(C)(C)O[C@H](C(=O)O)c1c(-c2ccc3c4c(ccnc24)CCO3)c2ccccc2c2[nH]ncc12 (atropisomer, axis not shown) [Example 90]	–
–	12.2	COc1ncc(-c2ccc3c(-c4ccc5c6c(ccnc46)CCO5)c([C@H](OC(C)(C)C)C(=O)O)c(C)cc3c2)cn1 (atropisomer, axis not shown) [Example 60]	–
–	386	Cc1cc2ccccc2c(-c2ccc3c4c(ccnc24)CCO3)c1[C@H](OC(C)(C)CCCCS(N)(=O)=O)C(=O)O (atropisomer, axis not shown) [Example 95]	–
–	–	COCC(C)(C)O[C@H](C(=O)O)c1c(C)cc2ccccc2c1-c1ccc2c3c(ccnc13)CCO2 (atropisomer, axis not shown) [Example 25, (2S)-2-((R)-1-(2,3-dihydropyrano[4,3,2-de]quinolin-7-yl)-3-methylnaphthalen-2-yl)-2-(1-methoxy-2-methylpropan-2-yloxy)acetic acid]	EC50 (Table I): 37 nM
–	1680	Cc1ccc2c(-c3ccc4c5c(ccnc35)CCO4)c([C@@H](OC(C)(C)CF)C(=O)O)c(C)cc2c1 (atropisomer, axis not shown) [Example 63]	–
32400	–	CC(C)(C)O[C@H](C(=O)O)c1c(-c2ccc3c4c(ccnc24)CCO3)c2ccccc2c2occc12 (atropisomer, axis not shown) [Example 77]	–
471	–	Cc1cc2cc(-c3c(C)ncnc3C)ccc2c(-c2ccc3c4c(ccnc24)CCO3)c1[C@H](OC(C)(C)C)C(=O)O (atropisomer, axis not shown) [Example 59]	–
74.2	–	Cc1cc2cc(-c3cncnc3N)ccc2c(-c2ccc3c4c(ccnc24)CCO3)c1[C@H](OC(C)(C)C)C(=O)O (atropisomer, axis not shown) [Example 53]	–
–	–	Cc1cc2cc(C#CC3CC3)ccc2c(-c2ccc3c4c(ccnc24)CCO3)c1[C@H](OC(C)(C)C)C(=O)O (atropisomer, axis not shown) [Example 21, (S)-2-tert-Butoxy-2-((R)-6-(cyclopropylethynyl)-1-(2,3-dihydropyrano[4,3,2-de]quinolin-7-yl)-3-methylnaphthalen-2-yl)acetic acid]	EC50 [1]: 169 nM

EC50 (Table II) [nM]	EC50 [2] [nM]	SMILES	other results
–	–	CCOCC(C)(C)O[C@H](C(=O)O)c1c(C)cc2ccccc2c1-c1ccc2c3c(ccnc13)CCO2 (atropisomer, axis not shown) [Example 27, (2S)-2-((R)-1-(2,3-Dihydropyrano[4,3,2-de]quinolin-7-yl)-3-methylnaphthalen-2-yl)-2-(1-ethoxy-2-methylpropan-2-yloxy)acetic acid]	EC50 (Table I): 84 nM
–	–	Cc1cc2ccc(C#CC(O)(c3ccccc3)C(F)(F)F)cc2c(-c2ccc(Cl)cc2)c1[C@H](OC(C)(C)C)C(=O)O (stereo partly drawn) [Example 9, (2S)-2-tert-butoxy-2-(1-(4-chlorophenyl)-3-methyl-7-(4,4,4-trifluoro-3-hydroxy-3-phenylbut-1-ynyl)naphthalen-2-yl)acetic acid]	EC50 [1]: 186 nM
6.95	–	Cc1cc2c(C)c(-c3cnc(N)nc3)ccc2c(-c2ccc3c4c(ccnc24)CCO3)c1[C@H](OC(C)(C)C)C(=O)O (atropisomer, axis not shown) [Example 75]	–
30.5	–	Cc1cc2cc(-c3cncnc3C)ccc2c(-c2ccc3c4c(ccnc24)CCO3)c1[C@H](OC(C)(C)C)C(=O)O (atropisomer, axis not shown) [Example 56]	–
–	30.7	Cc1cc2ccccc2c(-c2ccc3c4c(ccnc24)CCO3)c1C(OC(C)(C)CF)C(=O)O (centres unmarked) [Example 103]	–
–	19400	Cc1cc2ccccc2c(-c2ccc3c4c(ccnc24)CCO3)c1[C@@H](OC(C)(C)CCl)C(=O)O (atropisomer, axis not shown) [Example 98]	–
–	41.1	Cc1cc2cc(-c3cncnc3C(C)C)ccc2c(-c2ccc3c4c(ccnc24)CCO3)c1[C@H](OC(C)(C)C)C(=O)O (atropisomer, axis not shown) [Example 62]	–
–	9.88	Cc1cc2cc(-c3cncnc3)ccc2c(-c2ccc3c4c(ccnc24)CCO3)c1[C@H](OC(C)(C)C)C(=O)O (atropisomer, axis not shown) [Example 66]	–
100	–	Cc1cc2cc(-c3cnc(-c4ccccc4)nc3)ccc2c(-c2ccc3c4c(ccnc24)CCO3)c1[C@H](OC(C)(C)C)C(=O)O (atropisomer, axis not shown) [Example 36]	–
–	–	COCC(C)(C)O[C@H](C(=O)O)c1c(C)cc2ccccc2c1-c1ccc2c3c(ccnc13)CCO2 (atropisomer, axis not shown) [Example 26, (2S)-2-((S)-1-(2,3-Dihydropyrano[4,3,2-de]quinolin-7-yl)-3-methylnaphthalen-2-yl)-2-(1-methoxy-2-methylpropan-2-yloxy)acetic acid]	EC50 (Table I): 929 nM
–	4.4	Cc1cc2cc(-c3cnc(N4CCN(C)CC4)nc3)ccc2c(-c2ccc3c4c(ccnc24)CCO3)c1[C@H](OC(C)(C)C)C(=O)O (atropisomer, axis not shown) [Example 35]	–
53200	–	Cc1cc2cc(C#Cc3cncnc3)ccc2c(-c2ccc3c4c(ccnc24)CCO3)c1[C@H](OC(C)(C)C)C(=O)O (atropisomer, axis not shown) [Example 42]	–
–	15.4	Cc1cc2ccccc2c(-c2ccc3c4c(ccnc24)CCO3)c1[C@H](OC(C)(CF)CF)C(=O)O (atropisomer, axis not shown) [Example 105]	–
–	–	Cc1nc(C)c(C(C)(O)C#Cc2ccc3cc(C)c([C@H](OC(C)(C)C)C(=O)O)c(-c4ccc(Cl)cc4)c3c2)s1 (stereo partly drawn) [Example 13, (2S)-2-tert-Butoxy-2-(1-(4-chlorophenyl)-7-(3-(2,4-dimethylthiazol-5-yl)-3-hydroxybut-1-ynyl)-3-methylnaphthalen-2-yl)acetic acid]	EC50 [1]: 65 nM
7020	–	Cc1cc2c(C)c(-c3cnc(N(C)C)nc3)ccc2c(-c2ccc3c4c(ccnc24)CCO3)c1[C@H](OC(C)(C)C)C(=O)O (atropisomer, axis not shown) [Example 72]	–
–	10.4	Cc1cc2cc(-c3cnc(N(C)C)nc3)ccc2c(-c2ccc3c4c(ccnc24)CCO3)c1[C@H](OC(C)(C)C)C(=O)O (atropisomer, axis not shown) [Example 48]	–
1660	–	CC(C)(C)O[C@H](C(=O)O)c1c2c(c3ccccc3c1-c1ccc3c4c(ccnc14)CCO3)CCC2 (atropisomer, axis not shown) [Example 33]	–
11.3	–	Cc1cc2cccc(F)c2c(-c2ccc3c4c(ccnc24)CCO3)c1[C@H](OC(C)(C)C)C(=O)O (atropisomer, axis not shown) [Example 69]	–
8.95	–	Cc1cc2c(C)c(-c3cnc(N(C)C)nc3)ccc2c(-c2ccc3c4c(ccnc24)CCO3)c1[C@H](OC(C)(C)C)C(=O)O (atropisomer, axis not shown) [Example 73]	–
